# According to patent US10106556B2, “Heterocyclic compound” (TAKEDA PHARMACEUTICAL COMPANY LIMITED, priority 2015, dated 2018):
# Biological target: T1, His-hMAGL (recombinant polyhistidine tagged human MAGL protein) (Homo sapiens, UniProt Q99685)
# T1 construct: made in house; host or cells: E. coli BL21(DE3)
# T1 sequence (Q99685 1-303): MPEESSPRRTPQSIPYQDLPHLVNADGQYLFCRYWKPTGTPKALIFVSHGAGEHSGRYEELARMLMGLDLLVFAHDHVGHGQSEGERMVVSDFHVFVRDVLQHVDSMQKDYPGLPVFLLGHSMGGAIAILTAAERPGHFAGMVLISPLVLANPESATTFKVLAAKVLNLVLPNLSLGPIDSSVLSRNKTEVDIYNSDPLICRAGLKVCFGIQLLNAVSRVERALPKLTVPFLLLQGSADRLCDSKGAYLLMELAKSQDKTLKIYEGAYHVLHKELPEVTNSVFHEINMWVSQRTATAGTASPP
# Experiment: Measurement of MAGL inhibitory activity (arachidonic acid production from 2-arachidonylglycerol, RapidFire-mass spectrometry)
# Assay type: biochemical
# Conditions: MAGL inhibitory rate at 10 μM test compound; 60 min preincubation with His-hMAGL, 2-arachidonylglycerol substrate, 10 min reaction at room temperature
# How it was run: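 Recombinant His-tagged human MAGL converted 2-arachidonylglycerol to arachidonic acid. Reactions received acetonitrile with 3 μM arachidonic acid-d8 as internal standard, and product was quantified by RapidFire SPE (C4) with negative-mode SRM mass spectrometry. Percent inhibition was calculated against compound-free and enzyme-free controls.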
row,inhibition at 10 µM [%],Structure (SMILES)
1,99,"O=C1COc2cc(F)c(C(=O)N3CC(COc4ccc(-c5cccnc5Cl)cc4F)C3)cc2N1 [Example 232, 6-((3-((4-(2-chloropyridin-3-yl)-2-fluorophenoxy)methyl)azetidin-1-yl)carbonyl)-7-fluoro-2H-1,4-benzoxazin-3(4H)-one]"
2,100,"CCc1ncccc1-c1ccc(OCC2CN(C(=O)c3cc4c(cc3F)OCC(=O)N4)C2)c(F)c1 [Example 233, 6-((3-((4-(2-ethylpyridin-3-yl)-2-fluorophenoxy)methyl)azetidin-1-yl)carbonyl)-7-fluoro-2H-1,4-benzoxazin-3(4H)-one]"
3,97,"O=C1COc2cc(F)c(C(=O)N3CC(COc4ccc(-c5cncc(F)c5)cc4F)C3)cc2N1 [Example 234, 7-fluoro-6-((3-((2-fluoro-4-(5-fluoropyridin-3-yl)phenoxy)methyl)azetidin-1-yl)carbonyl)-2H-1,4-benzoxazin-3(4H)-one]"
4,100,"O=C1COc2cc(F)c(C(=O)N3CC(COc4ccc(-c5cncc(Cl)c5)cc4F)C3)cc2N1 [Example 235, 6-((3-((4-(5-chloropyridin-3-yl)-2-fluorophenoxy)methyl)azetidin-1-yl)carbonyl)-7-fluoro-2H-1,4-benzoxazin-3(4H)-one]"
5,99,"Cc1cncc(-c2ccc(OCC3CN(C(=O)c4cc5c(cc4F)OCC(=O)N5)C3)c(F)c2)c1 [Example 236, 7-fluoro-6-((3-((2-fluoro-4-(5-methylpyridin-3-yl)phenoxy)methyl)azetidin-1-yl)carbonyl)-2H-1,4-benzoxazin-3(4H)-one]"
6,99,"Cc1ccncc1-c1ccc(OCC2CN(C(=O)c3cc4c(cc3F)OCC(=O)N4)C2)c(F)c1 [Example 237, 7-fluoro-6-((3-((2-fluoro-4-(4-methylpyridin-3-yl)phenoxy)methyl)azetidin-1-yl)carbonyl)-2H-1,4-benzoxazin-3(4H)-one]"
7,99,"O=C1COc2cc(F)c(C(=O)N3CC(COc4ccc(-c5ccc(F)nc5)cc4F)C3)cc2N1 [Example 238, 7-fluoro-6-((3-((2-fluoro-4-(6-fluoropyridin-3-yl)phenoxy)methyl)azetidin-1-yl)carbonyl)-2H-1,4-benzoxazin-3(4H)-one]"
8,100,"O=C1COc2cc(F)c(C(=O)N3CC(COc4ccc(-c5ccncc5)cc4F)C3)cc2N1 [Example 239, 7-fluoro-6-((3-((2-fluoro-4-(pyridin-4-yl)phenoxy)methyl)azetidin-1-yl)carbonyl)-2H-1,4-benzoxazin-3(4H)-one]"
9,102,"O=C1COc2cc(F)c(C(=O)N3CC(COc4ccc(-c5ccnc(F)c5)cc4F)C3)cc2N1 [Example 240, 7-fluoro-6-((3-((2-fluoro-4-(2-fluoropyridin-4-yl)phenoxy)methyl)azetidin-1-yl)carbonyl)-2H-1,4-benzoxazin-3(4H)-one]"
10,101,"O=C1COc2cc(F)c(C(=O)N3CC(COc4ccc(-c5ccnc(Cl)c5)cc4F)C3)cc2N1 [Example 241, 6-((3-((4-(2-chloropyridin-4-yl)-2-fluorophenoxy)methyl)azetidin-1-yl)carbonyl)-7-fluoro-2H-1,4-benzoxazin-3(4H)-one]"
11,100,"O=C1COc2cc(F)c(C(=O)N3CC(COc4ccc(-c5ccncc5F)cc4F)C3)cc2N1 [Example 242, 7-fluoro-6-((3-((2-fluoro-4-(3-fluoropyridin-4-yl)phenoxy)methyl)azetidin-1-yl)carbonyl)-2H-1,4-benzoxazin-3(4H)-one]"
12,101,"O=C1COc2cc(F)c(C(=O)N3CC(COc4ccc(-c5ccncc5Cl)cc4F)C3)cc2N1 [Example 243, 6-((3-((4-(3-chloropyridin-4-yl)-2-fluorophenoxy)methyl)azetidin-1-yl)carbonyl)-7-fluoro-2H-1,4-benzoxazin-3(4H)-one]"
13,100,"O=C1COc2cc(F)c(C(=O)N3CC(COc4ccc(C5=CCOCC5)cc4F)C3)cc2N1 [Example 244, 6-((3-((4-(3,6-dihydro-2H-pyran-4-yl)-2-fluorophenoxy)methyl)azetidin-1-yl)carbonyl)-7-fluoro-2H-1,4-benzoxazin-3(4H)-one]"
14,96,"Cn1cc(-c2ccc(OCC3CN(C(=O)c4cc5c(cc4F)OCC(=O)N5)C3)c(F)c2)cn1 [Example 246, 7-fluoro-6-((3-((2-fluoro-4-(1-methyl-1H-pyrazol-4-yl)phenoxy)methyl)azetidin-1-yl)carbonyl)-2H-1,4-benzoxazin-3(4H)-one]"
15,96,"O=C1COc2cc(F)c(C(=O)N3CC(COc4ccc(-c5cnn(C(F)F)c5)cc4F)C3)cc2N1 [Example 247, 6-((3-((4-(1-(difluoromethyl)-1H-pyrazol-4-yl)-2-fluorophenoxy)methyl)azetidin-1-yl)carbonyl)-7-fluoro-2H-1,4-benzoxazin-3(4H)-one]"
16,98,"O=C1COc2cc(F)c(C(=O)N3CC(COc4ccc(-c5cnn(C6CC6)c5)cc4F)C3)cc2N1 [Example 248, 6-((3-((4-(1-cyclopropyl-1H-pyrazol-4-yl)-2-fluorophenoxy)methyl)azetidin-1-yl)carbonyl)-7-fluoro-2H-1,4-benzoxazin-3(4H)-one]"
17,101,"Cc1nn(C)cc1-c1ccc(OCC2CN(C(=O)c3cc4c(cc3F)OCC(=O)N4)C2)c(F)c1 [Example 249, 6-((3-((4-(1,3-dimethyl-1H-pyrazol-4-yl)-2-fluorophenoxy)methyl)azetidin-1-yl)carbonyl)-7-fluoro-2H-1,4-benzoxazin-3(4H)-one]"
18,101,"Cc1c(-c2ccc(OCC3CN(C(=O)c4cc5c(cc4F)OCC(=O)N5)C3)c(F)c2)cnn1C [Example 250, 6-((3-((4-(1,5-dimethyl-1H-pyrazol-4-yl)-2-fluorophenoxy)methyl)azetidin-1-yl)carbonyl)-7-fluoro-2H-1,4-benzoxazin-3(4H)-one]"
19,100,"Cc1nn(C)c(C)c1-c1ccc(OCC2CN(C(=O)c3cc4c(cc3F)OCC(=O)N4)C2)c(F)c1 [Example 251, 7-fluoro-6-((3-((2-fluoro-4-(1,3,5-trimethyl-1H-pyrazol-4-yl)phenoxy)methyl)azetidin-1-yl)carbonyl)-2H-1,4-benzoxazin-3(4H)-one]"
20,99,"Cn1ccc(-c2ccc(OCC3CN(C(=O)c4cc5c(cc4F)OCC(=O)N5)C3)c(F)c2)n1 [Example 252, 7-fluoro-6-((3-((2-fluoro-4-(1-methyl-1H-pyrazol-3-yl)phenoxy)methyl)azetidin-1-yl)carbonyl)-2H-1,4-benzoxazin-3(4H)-one]"
21,102,"Cc1cc(-c2ccc(OCC3CN(C(=O)c4cc5c(cc4F)OCC(=O)N5)C3)c(F)c2)nn1C [Example 253, 6-((3-((4-(1,5-dimethyl-1H-pyrazol-3-yl)-2-fluorophenoxy)methyl)azetidin-1-yl)carbonyl)-7-fluoro-2H-1,4-benzoxazin-3(4H)-one]"
22,102,"Cn1nccc1-c1ccc(OCC2CN(C(=O)c3cc4c(cc3F)OCC(=O)N4)C2)c(F)c1 [Example 254, 7-fluoro-6-((3-((2-fluoro-4-(1-methyl-1H-pyrazol-5-yl)phenoxy)methyl)azetidin-1-yl)carbonyl)-2H-1,4-benzoxazin-3(4H)-one]"
23,102,"Cn1cccc1-c1ccc(OCC2CN(C(=O)c3cc4c(cc3F)OCC(=O)N4)C2)c(F)c1 [Example 255, 7-fluoro-6-((3-((2-fluoro-4-(1-methyl-1H-pyrrol-2-yl)phenoxy)methyl)azetidin-1-yl)carbonyl)-2H-1,4-benzoxazin-3(4H)-one]"
24,98,"O=C1COc2cc(F)c(C(=O)N3CC(COc4ccc(-c5ccc(C(F)(F)F)nc5)cc4F)C3)cc2N1 [Example 256, 7-fluoro-6-((3-((2-fluoro-4-(6-(trifluoromethyl)pyridin-3-yl)phenoxy)methyl)azetidin-1-yl)carbonyl)-2H-1,4-benzoxazin-3(4H)-one]"
25,99,"O=C1COc2cc(F)c(C(=O)N3CC(COc4ccc(-c5ccc6c(c5)CCO6)cc4F)C3)cc2N1 [Example 257, 6-((3-((4-(2,3-dihydro-1-benzofuran-5-yl)-2-fluorophenoxy)methyl)azetidin-1-yl)carbonyl)-7-fluoro-2H-1,4-benzoxazin-3(4H)-one]"
26,100,"Cc1cc(-c2ccc(OCC3CN(C(=O)c4cc5c(cc4F)OCC(=O)N5)C3)c(F)c2)n(C)n1 [Example 259, 6-((3-((4-(1,3-dimethyl-1H-pyrazol-5-yl)-2-fluorophenoxy)methyl)azetidin-1-yl)carbonyl)-7-fluoro-2H-1,4-benzoxazin-3(4H)-one]"
27,100,"Cc1nc(C)c(-c2ccc(OCC3CN(C(=O)c4cc5c(cc4F)OCC(=O)N5)C3)c(F)c2)s1 [Example 260, 6-((3-((4-(2,4-dimethyl-1,3-thiazol-5-yl)-2-fluorophenoxy)methyl)azetidin-1-yl)carbonyl)-7-fluoro-2H-1,4-benzoxazin-3(4H)-one]"
28,98,"O=C1COc2cc(F)c(C(=O)N3CC(COc4ccc(-c5cccnc5)cc4F)C3)cc2N1 [Example 261, 7-fluoro-6-((3-((2-fluoro-4-(pyridin-3-yl)phenoxy)methyl)azetidin-1-yl)carbonyl)-2H-1,4-benzoxazin-3(4H)-one]"

row,Structure (SMILES),inhibition at 10 µM [%]
1,"CN1CC=C(c2ccc(OCC3CN(C(=O)c4cc5c(cc4F)OCC(=O)N5)C3)c(F)c2)CC1 [Example 245, 7-fluoro-6-((3-((2-fluoro-4-(1-methyl-1,2,3,6-tetrahydropyridin-4-yl)phenoxy)methyl)azetidin-1-yl)carbonyl)-2H-1,4-benzoxazin-3(4H)-one]",96
